Read-outs that look alike come from different tables or passages of the source.
System: patients with advanced TP53 wild-type (WT) leukemias

## COc1ncc(-c2nc3c(n2C(C)C)[C@H](c2ccc(Cl)cc2)N(c2cc(Cl)cn(C)c2=O)C3=O)c(OC)n1 [HDM201, (S)-5-(5-Chloro-1-methyl-2-oxo-1,2-dihydro-pyridin-3-yl)-6-(4-chloro-phenyl)-2-(2,4-dimethoxy-pyrimidin-5-yl)-1-isopropyl-5,6-dihydro-1H-pyrrolo[3,4-d]imidazol-4-one]
Regimen 2A N = 7, All Grades
  AE: Blood Creatinine Increased: 1 (14.3) n (%)
  AE: Blood Phosphorus Increased: 0 n (%)
  AE: Blood Uric Acid Increased: 0 n (%)
  AE: Bone Marrow Failure: 1 (14.3) n (%)
  AE: C-Reactive Protein Increased: 1 (14.3) n (%)
  AE: Cardiac Failure: 0 n (%)
  AE: Cellulitis: 0 n (%)
  AE: Chronic Graft Versus Host Disease: 0 n (%)
  AE: Conjunctival Haemorrhage: 0 n (%)
  AE: Cough: 0 n (%)
  AE: Cystitis Viral: 0 n (%)
  AE: Cytomegalovirus Infection: 1 (14.3) n (%)
  AE: Decreased Appetite: 1 (14.3) n (%)
  AE: Diarrhoea: 0 n (%)
  AE: Dyspepsia: 1 (14.3) n (%)
  AE: Dyspnoea: 0 n (%)
  AE: Epistaxis: 0 n (%)
  AE: Fatigue: 0 n (%)
  AE: Febrile Neutropenia: 2 (28.6) n (%)
  AE: Gamma-Glutamyltransferase Increased: 0 n (%)
  AE: General Physical Health Deterioration: 0 n (%)
  AE: Gingival Bleeding: 0 n (%)
  AE: Graft Versus Host Disease: 0 n (%)
  AE: Haemoglobin Decreased: 0 n (%)
  AE: Headache: 0 n (%)
  AE: Hyperbilirubinaemia: 1 (14.3) n (%)
  AE: Hyperglycaemia: 0 n (%)
  AE: Hyperkalaemia: 0 n (%)
  AE: Hyperphosphataemia: 0 n (%)
  AE: Hyperuricaemia: 1 (14.3) n (%)
  AE: Hypoalbuminaemia: 0 n (%)
  AE: Hypocalcaemia: 0 n (%)
  AE: Hypokalaemia: 0 n (%)
  AE: Hypomagnesaemia: 0 n (%)
  AE: Hyponatraemia: 0 n (%)
  AE: Hypophosphataemia: 0 n (%)
  AE: Hypotension: 0 n (%)
  AE: Infection: 0 n (%)
  AE: Infective Glossitis: 0 n (%)
  AE: Iron Overload: 0 n (%)
  AE: Leukopenia: 0 n (%)
  AE: Lip Oedema: 0 n (%)
  AE: Lipase Increased: 0 n (%)
  AE: Macular Oedema: 0 n (%)
  AE: Malaise: 1 (14.3) n (%)
  AE: Mouth Haemorrhage: 0 n (%)
  AE: Nausea: 3 (42.9) n (%)
  AE: Neutropenia/Neutrophil Count Decreased: 1 (14.3) n (%)
  AE: Oedema: 0 n (%)
  AE: Oedema Peripheral: 0 n (%)
  AE: Oral Disorder: 0 n (%)
  AE: Pain In Extremity: 0 n (%)
  AE: Pancytopenia: 0 n (%)
  AE: Pneumonia: 0 n (%)
  AE: Pollakiuria: 0 n (%)
  AE: Pyrexia: 1 (14.3) n (%)
  AE: Rash: 0 n (%)
  AE: Rash Erythematous: 0 n (%)
  AE: Rash Papular: 0 n (%)
  AE: Rectal Haemorrhage: 0 n (%)
  AE: Renal Failure: 0 n (%)
  AE: Skin Exfoliation: 0 n (%)
  AE: Stomatitis: 0 n (%)
  AE: Subarachnoid Haemorrhage: 0 n (%)
  AE: Thrombocytopenia/Platelet Count Decreased: 2 (28.6) n (%)
  AE: Total: 5 (71.4) n (%)
  AE: Tumour Lysis Syndrome: 1 (14.3) n (%)
  AE: Vomiting: 1 (14.3) n (%)
  AE: Weight Decreased: 0 n (%)
  AE: White Blood Cell Count Decreased: 1 (14.3) n (%)
Regimen 2A N = 7, Grade 3/4
  AE: Abdominal Discomfort: 0 n (%)
  AE: Abdominal Pain: 0 n (%)
  AE: Abdominal Pain Upper: 0 n (%)
  AE: Acute Kidney Injury: 0 n (%)
  AE: Amylase Increased: 0 n (%)
  AE: Anaemia: 2 (28.6) n (%)
  AE: Arthralgia: 0 n (%)
  AE: Asthenia: 0 n (%)
  AE: Atrial Fibrillation: 0 n (%)
  AE: Atypical Pneumonia: 0 n (%)
  AE: Balanitis Candida: 0 n (%)
  AE: Blood Alkaline Phosphatase Increased: 0 n (%)
  AE: Blood Bilirubin Increased: 0 n (%)
  AE: Blood Creatinine Increased: 0 n (%)
  AE: Blood Phosphorus Increased: 0 n (%)
  AE: Blood Uric Acid Increased: 0 n (%)
  AE: Bone Marrow Failure: 1 (14.3) n (%)
  AE: C-Reactive Protein Increased: 1 (14.3) n (%)
  AE: Cardiac Failure: 0 n (%)
  AE: Cellulitis: 0 n (%)
  AE: Chronic Graft Versus Host Disease: 0 n (%)
  AE: Conjunctival Haemorrhage: 0 n (%)
  AE: Cough: 0 n (%)
  AE: Cystitis Viral: 0 n (%)
  AE: Cytomegalovirus Infection: 0 n (%)
  AE: Decreased Appetite: 0 n (%)
  AE: Diarrhoea: 0 n (%)
  AE: Dyspepsia: 0 n (%)
  AE: Dyspnoea: 0 n (%)
  AE: Epistaxis: 0 n (%)
  AE: Fatigue: 0 n (%)
  AE: Febrile Neutropenia: 2 (28.6) n (%)
  AE: Gamma-Glutamyltransferase Increased: 0 n (%)
  AE: General Physical Health Deterioration: 0 n (%)
  AE: Gingival Bleeding: 0 n (%)
  AE: Graft Versus Host Disease: 0 n (%)
